pEC50, pIC50: −log10 of the molar value. One block for each compound: values may come before it.
Key:
Trypanosoma cruzi [1] = assay: Antitrypanosomal activity against Trypanosoma cruzi Y intracellular amastigote transfected in monkey LLC-MK2 cells assessed as inhibition of intracellular amastigote viability measured after 24 hrs by Neubauer chamber based analysis; type: functional, organism-based; conditions: LLC-MK2, 24 h
[2] = Selectivity index, ratio of IC50 for cytotoxicity against monkey LLC-MK2 cells to IC50 for antitrypanosomal activity against Trypanosoma cruzi Y intracellular amastigote transfected in monkey LLC-MK2 cells; type: toxicity, cell-based; conditions: read-out: Ratio IC50
Trypanosoma cruzi [3] = assay: Antitrypanosomal activity against Trypanosoma cruzi Y […] transfected in monkey LLC-MK2 cells assessed as inhibition of […] viability measured after 24 hrs by Neubauer chamber based analysis; type: functional, organism-based; conditions: LLC-MK2, 24 h
[4] = Selectivity index, ratio of IC50 for cytotoxicity against monkey LLC-MK2 cells to IC50 for antitrypanosomal activity against Trypanosoma cruzi Y […] transfected in monkey LLC-MK2 cells; type: toxicity, cell-based; conditions: read-out: Ratio IC50
Trypanosoma cruzi [5] = assay: Antitrypanosomal activity against Trypanosoma cruzi Y […] transfected in African green monkey Vero cells assessed as inhibition of […] viability measured after 48 hrs by DAPI staining based fluorescence microscopic assay; type: functional, organism-based
[6] = Selectivity index, ratio of IC50 for cytotoxicity against African green monkey Vero cells to IC50 for antitrypanosomal activity against Trypanosoma cruzi X-10 intracellular amastigotes transfected in African green monkey Vero cells; type: toxicity, cell-based; conditions: read-out: Ratio IC50
Trypanosoma cruzi [7] = assay: Antitrypanosomal activity against Trypanosoma cruzi Sylvio X-10 intracellular amastigotes transfected in African green monkey Vero cells assessed as inhibition of intracellular amastigotes viability measured after 72 hrs by giemsa-staining based analysis; type: functional, organism-based; conditions: Sylvio X-10, Vero
Trypanosoma cruzi [8] = assay: Antitrypanosomal activity against Trypanosoma cruzi Tulahuen 2 intracellular epimastigotes assessed as viability of […] measured after 5 days by absorbance based analysis; type: functional, organism-based; conditions: Tulahuen 2, 120 h
[9] = Selectivity index, ratio of IC50 for cytotoxicity against mouse J774.1 cells to IC50 for antitrypanosomal activity against Trypanosoma cruzi Tulahuen 2 […]; type: toxicity, cell-based; conditions: read-out: Ratio IC50
Trypanosoma cruzi [10] = assay: Antitrypanosomal activity against Trypanosoma cruzi […] assessed as inhibition of […] viability; type: functional, organism-based
Trypanosoma cruzi [11] = assay: Antitrypanosomal activity against Trypanosoma cruzi Y intracellular amastigotes assessed as inhibition of intracellular amastigotes viability at 10 uM measured after 72 hrs relative to control; type: functional
Trypanosoma cruzi [12] = assay: Antitrypanosomal activity against Trypanosoma cruzi Dm28c intracellular amastigotes transfected in African green monkey Vero cells assessed as inhibition of intracellular amastigotes viability measured after 24 hrs by MTT assay; type: functional, organism-based
[13] = Selectivity index, ratio of IC50 for cytotoxicity against African green monkey Vero cells to IC50 for antitrypanosomal activity against Trypanosoma cruzi Dm28c […] transfected in African green monkey Vero cells; type: toxicity, cell-based; conditions: read-out: Ratio IC50
Trypanosoma cruzi [14] = assay: Antitrypanosomal activity against Trypanosoma cruzi Dm28c […] transfected in African green monkey Vero cells assessed as inhibition of […] viability measured after 24 hrs by MTT assay; type: functional, organism-based
[15] = Selectivity index, ratio of IC50 for cytotoxicity against African green monkey Vero cells to IC50 for antitrypanosomal activity against Trypanosoma cruzi Dm28c intracellular amastigotes transfected in African green monkey Vero cells; type: toxicity, cell-based; conditions: read-out: Ratio IC50
Trypanosoma cruzi [16] = assay: Antitrypanosomal activity against Trypanosoma cruzi Tulahuen CL2 intracellular amastigotes transfected in human MRC5 cells assessed as inhibition of intracellular amastigotes viability using […] substrate measured after 7 days by chlorophenol red […] staining based analysis; type: functional, organism-based; conditions: Tulahuen CL2, MRC5, 168 h

Structure (SMILES): N/C(S)=N/N=C/c1ccc([N+](=O)[O-])cc1
pIC50 (Trypanosoma cruzi [1]): 4.93
selectivity ratio [2]: 11.6
pIC50 (Trypanosoma cruzi [3]): 5.84
selectivity ratio [4]: 26.2

Structure (SMILES): C=CCn1c(C(=O)N2CCN(C/C=C/c3ccccc3)CC2)cs\c1=N/N=C/C=C/c1ccco1
selectivity ratio [6]: 433
pIC50 (Trypanosoma cruzi [7]): 6.15

Structure (SMILES): O=C(CS/C(C(=O)c1ccc2ccccc2c1)=C1\C=C(c2ccc(O)cc2)SS1)c1ccc2ccccc2c1
pIC50 (Trypanosoma cruzi [8]): 5.31
selectivity ratio [9]: 12.8

Structure (SMILES): COc1cccc(Nc2c(C#N)cnc3ccc(Cl)cc23)c1
pIC50 (Trypanosoma cruzi [10]): > 6.00
inhibition at 10 µM (Trypanosoma cruzi [11]): 65%

Structure (SMILES): CCOc1cccc2sc(N(Cc3cccnc3)C(=O)C3CCCCC3)nc12
pIC50 (Trypanosoma cruzi [16]): 6.80

Further lines, with some results ahead:

pEC50 (Trypanosoma cruzi [5]): 6.00
Structure (SMILES): O=C(OCCCCCCCCCCCC[P+](c1ccccc1)(c1ccccc1)c1ccccc1)c1cc(O)c(O)c(O)c1

pEC50 (Trypanosoma cruzi [5]): 6.00
Structure (SMILES): O=C(OCCCCCCCCCC[P+](c1ccccc1)(c1ccccc1)c1ccccc1)c1cc(O)c(O)c(O)c1

pIC50 (Trypanosoma cruzi [12]): 5.63
pIC50 (Trypanosoma cruzi [14]): 4.48
Structure (SMILES): CC1(C(CC(=O)/C=C/c2ccccc2)c2ccccc2)N=C(c2ccccc2)OC1=O (configuration not stated)
selectivity ratio [13]: 6.74
selectivity ratio [15]: 95
